Active and inactive are the calls of the source. The calls are words filed in the database; no cut-off is given here.
Assays:
[1] = Solubility of the compound in aqueous buffer at 1 mM; type: physicochemical; conditions: 1000 µM
[2] = target: T1, Bromodomain-containing protein 4 (Homo sapiens, UniProt O60885); test: Binding affinity to recombinant human N-terminal His6-tagged BRD4 bromodomain 1 (44 to 168 residues) expressed in Escherichia coli BL21(DE3) assessed as increase in melting temperature at 50 to 200 uM by differential scanning fluorimetry
[3] = target: Carbonic anhydrase 2 (Bos taurus) (UniProt P00921); test: Binding affinity to bovine carbonic anhydrase-2 assessed as change in melting temperature at 20 uM by differential scanning fluorimetry
[4] = Solubility of the compound in DMSO at 200 mM; type: physicochemical; conditions: 200000 µM
[5] = target: T1, Bromodomain-containing protein 4; test: Binding affinity to recombinant human N-terminal His6-tagged BRD4 bromodomain 1 (44 to 168 residues) expressed in Escherichia coli BL21(DE3) assessed as change in melting temperature at 10 uM by differential scanning fluorimetry
[6] = target: T1, Bromodomain-containing protein 4; test: Binding affinity to recombinant human N-terminal His6-tagged BRD4 bromodomain 1 (44 to 168 residues) expressed in Escherichia coli BL21(DE3) assessed as change in melting temperature at 40 uM by differential scanning fluorimetry
[7] = target: T1, Bromodomain-containing protein 4; test: Binding affinity to recombinant human N-terminal His6-tagged BRD4 bromodomain 1 (44 to 168 residues) expressed in Escherichia coli BL21(DE3) assessed as change in melting temperature at 20 uM by differential scanning fluorimetry
[8] = target: T1, Bromodomain-containing protein 4; test: Inhibition of recombinant human N-terminal His6-tagged BRD4 by TR-FRET assay
[9] = target: T1, Bromodomain-containing protein 4; test: Inhibition of recombinant human N-terminal His6-tagged BRD4 at 20 uM by TR-FRET assay relative to control

Sequence of Carbonic anhydrase 2 (Bos taurus) (P00921 2-260 limits assumed): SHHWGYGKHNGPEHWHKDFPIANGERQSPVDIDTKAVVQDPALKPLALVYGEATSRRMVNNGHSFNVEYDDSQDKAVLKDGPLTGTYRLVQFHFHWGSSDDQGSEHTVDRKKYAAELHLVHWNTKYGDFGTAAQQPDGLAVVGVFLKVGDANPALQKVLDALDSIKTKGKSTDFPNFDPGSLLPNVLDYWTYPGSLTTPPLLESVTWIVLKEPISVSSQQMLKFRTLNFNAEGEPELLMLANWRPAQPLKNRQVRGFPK

| Structure (SMILES) | solubility [1] | Activity [2] | deltaTm [3] [K] | solubility [4] | deltaTm [5] [K] | deltaTm [6] [K] | ΔTm [7] [°C] | IC50 [8] [µM] | inhibition [9] |
| --- | --- | --- | --- | --- | --- | --- | --- | --- | --- |
| CC1(C)C(=O)Nc2cc(C(=O)O)ccc21 | Soluble | Active | > 0.5 | Soluble | > 0.5 | > 1 | 2.1 |  |  |
| O=C1C(=O)N(CCCOc2ccccc2)c2ccc(Cl)cc21 | Soluble | inactive | > 0.5 | Soluble | > 0.5 | > 1 | -2.63 | > 100 | 65.9% |
| Cn1cc(NC(=O)c2occc2COc2ccccc2)ccc1=O | Soluble | Active | > 0.5 | Soluble | > 0.5 | > 1 | 1.2 | 3 | 64.4% |
| COCCOc1ccccc1CNc1ccc2c(c1)n(C)c(=O)n2C | Soluble | Active | > 0.5 | Soluble | > 0.5 | > 1 | 1.39 | 21 | 63.4% |
| Nc1ccc2nc(N3CCCC3)sc2c1 | Soluble | Active | > 0.5 | Soluble | > 0.5 | > 1 | 1.7 |  | Active |
| Cc1ccc(S(=O)(=O)Nc2ccc3c(c2)n(C)c(=O)n3C)c(C)c1 |  |  |  |  |  |  |  | 2.5 |  |
| Cc1nc(-c2cccc(NC(=O)c3ccc4[nH]c(C)c(C)c4c3)c2)cs1 | Soluble | Active | > 0.5 | Soluble | > 0.5 | > 1 | 1.2 | 7.4 | 80.5% |
| COc1cccc(C(=O)Nc2ccc3c(c2)n(C)c(=O)n3C)c1 |  |  |  |  |  |  |  | 15.8 |  |
| CC1CCCC(C)N1C(=O)CSc1nc2sc3c(c2c(=O)n1C)CCCC3 (centres undefined) | Soluble | inactive | > 0.5 | Soluble | > 0.5 | > 1 | -1.85 | > 100 | 68.2% |
| Cc1cc2cc(NC(=O)c3sc4nc(C(F)(F)F)ccc4c3C)ccc2[nH]1 | Soluble | Active | > 0.5 | Soluble | > 0.5 | > 1 | 1.39 | 24 | 72.7% |
| Cc1ccc(C(=O)Nc2ccc3nc(N4CCCC4)sc3c2)cc1[N+](=O)[O-] | Soluble | Active | > 0.5 | Soluble | > 0.5 | > 1 | 2.01 | > 100 | 72.4% |
| Cc1cc2cc(N)ccc2[nH]1 | Soluble | Active | > 0.5 | Soluble | > 0.5 | > 1 | 1.4 |  | Active |
| Cc1nc(-c2cccc(N)c2)cs1 | Soluble | Active | > 0.5 | Soluble | > 0.5 | > 1 |  |  | inactive |
| CC1Oc2ccc(N)cc2NC1=O (centres undefined) | Soluble | Active | > 0.5 | Soluble | > 0.5 | > 1 | 2.8 |  |  |
| Cn1c(=O)n(C)c2cc(NC(=O)c3cc4c(s3)CCC4)ccc21 | Soluble | Active | > 0.5 | Soluble | > 0.5 | > 1 | 1.88 | 1.9 | 76.5% |
| COc1ccc(OC)c(CCC(=O)Nc2ccc3c(c2)n(C)c(=O)n3C)c1 | Soluble | Active | > 0.5 | Soluble | > 0.5 | > 1 | 0.82 | 60 | 67% |
| Cc1nc2ccc(C(=O)O)cc2o1 | Soluble | Active | > 0.5 | Soluble | > 0.5 | > 1 | -2.1 |  |  |
| Cc1cc2cc(NC(=O)c3ccc(Oc4ccc(C(F)(F)F)cn4)cc3)ccc2[nH]1 | Soluble | Active | > 0.5 | Soluble | > 0.5 | > 1 | 1.32 | 27 | 63.3% |
| Cn1c(=O)n(C)c2cc(N)ccc21 | Soluble | Active | > 0.5 | Soluble | > 0.5 | > 1 | 2.8 |  | Active |

From ChEMBL document CHEMBL4118182, “Straightforward hit identification approach in fragment-based discovery of bromodomain-containing protein 4 (BRD4) inhibitors” (Bioorg Med Chem, 2018)
